# Where “and” joins values, the source holds several entries; their conditions need not be identical. Identical values can stand only once.
# What was measured:
# [1] = Cytotoxicity assay (CellTiter Glo) on lymphoma cells; conditions: human
# H9 cells = test: as above; conditions: ratio CC50 FB789 / CC50 H9
# SARS-CoV-2 = tested on: SARS-CoV-2; set-up: method as in PMID 36557962; conditions: half-maximal concentration inhibiting 50% of virus replication; cited from earlier work
# [2] = Cytotoxicity assay (CellTiter Glo) on colon epithelial carcinoma cells; conditions: human, Caco-2
# Caco-2 cells = test: as above; conditions: ratio CC50 FB789 / CC50 Caco-2
# [3] = Cytotoxicity assay (CellTiter Glo) on normal fibroblasts; assay type: cell-based, human; conditions: human, FB789 normal fibroblast cells
# Description: (§1) Cell-based assays were carried out on the normal human fibroblast FB789 cell line (kindly provided by Elena Dell’Ambra from IRCCS Istituto Dermopatico dell’Immacolata, Rome), on the Huh7 hepatocarcinoma cell line (kindly provided by Istituto Toscano Tumori, Core Research Laboratory, Siena, Italy), on the Caco-2 adenocarcinoma colorectal cell line (ATCC catalog. n. HTB-37), on the suspension H9 cell line (repository code ARP0001, NIBSC Centre for AIDS reagents) and on the adherent TZM-bl cell line (repository code ARP5011, NIBSC Centre for AIDS reagents).
# (§2) The FB789 was cultured in Dulbecco’s Modified Eagle Medium (DMEM) and Ham’s F10 in a ratio of 50%, supplemented with 10% FBS, 2 mM L-glutamine, and 10,000 unit/mL penicillin/streptomycin.
# (§3) The cytotoxicity of all investigated compounds was assayed in all cells lines as previously described. Briefly, confluent cells were treated with decreasing compound concentrations for 48h. The final DMSO concentration used was never greater than 0.5% v/v. Each experiment was performed in duplicate and repeated in two independent experiments. Cell viability was calculated using the CellTiter Glo 2.0 kit (Promega, Madison, WI, USA) and luminescence values signal obtained from cells treated with serial dilution of the compounds were measured through the GloMax® Discover Multi mode Microplate Reader (Promega) and elaborated with GraphPad PRISM software version 9.0 (La Jolla, San Diego, CA, USA). […] A non-toxic dose of each compound was used as the starting concentration in the antiviral activity assay.
# Huh7 cells = test: Cytotoxicity assay (CellTiter Glo) on hepatocarcinoma cells; assay type: cell-based; conditions: ratio CC50 FB789 / CC50 Huh7
# Description: as §1
# (§4) High glucose Dulbecco’s Modified Eagle Medium with sodium pyruvate and L-glutamine (DMEM; Euroclone) was used to grow Huh-7 and TZM-bl. Minimum Essential Eagle Medium (EMEM; Euroclone) was used to propagate Caco-2. DMEM and EMEM were supplemented with 10% fetal bovine serum (FBS; Euroclone) and 1% penicillin/streptomycin (Pen/Strep, Euroclone). The growth medium with a lower concentration of FBS (1%) was used for viral propagation, cytotoxic and antiviral experiments in adherent cell lines. […] All cell lines were grown at 37 °C in a 5% CO2 atmosphere in a humidified incubator.
# as §3
# [4] = as above; assay type: cell-based; conditions: human, Huh7 hepatocarcinoma cells, Huh7 hepatocarcinoma
# Description: as §1, §4, §3
# DENV = DENV antiviral yield reduction assay in Huh7; conditions: read-out: potency on DENV; flavivirus DENV
# WNV = WNV antiviral yield reduction assay in Huh7; conditions: read-out: potency on WNV; flavivirus WNV
# [5] = Metabolic stability assay with human liver microsomes; assay type: in vitro ADME; conditions: 1 h, 37 °C, 50 µM
# Description: A DMSO solution of selected compounds was incubated in the presence of phosphate buffer (25 mM, pH 7.4), human liver microsomal protein (200 µg/mL), and an NADPH regenerating system in MgCl2 (48 mM) at a final concentration of 50 µM. The metabolic reactions were conducted for 1 h under shaking at 37 °C and then stopped by adding cold acetonitrile (ACN). Centrifuging the mixtures at 5000 rpm, the supernatant was separated, dried under nitrogen flow, and finally suspended in methanol (MeOH). The amount of the parent drug and the metabolites were determined as previously described.
# Plasma stability assay = assay type: in vitro ADME; conditions: human plasma, 24 h, 37 °C; % of Time 0
# Description: A DMSO solution of each compound was incubated at a final concentration of 100 µM at 37 °C under shaking with HEPES buffer (25 mM, 140 mM NaCl, pH 7.4) and human plasma. At time 0 and after 24 h, samples were collected from the reaction mixtures and treated with cold ACN. After centrifugation at 5000 rpm for 10 min, the supernatant was collected, and the amount of unmodified compound was determined using the HLPC-UV/MS method described above. Modified compounds were calculated using time zero as 100% of the unmodified compound.
# FB789 cells = test: Cytotoxicity assay (CellTiter Glo) on normal fibroblasts; assay type: cell-based, human; conditions: pyrimidines and pyridines, read out at 48 h, mean ± SD
# Description: as §1, §2, §3
# [6] = Kinetic aqueous solubility; assay type: physicochemical; conditions: Milli-Q water, 25 °C, kinetic from dmso stock; for solubility kinetic at 3 h: water, Mill-Q H2O, RT, LOD 0.1 µg/mL
# Description: For the quantitative analysis, a UV/LC-MS system was used. LC analysis was performed through an Agilent 1260 Infinity HPLC-DAD system (Agilent Technologies, Palo Alto, CA, USA), which constituted of a vacuum solvent degassing unit, a binary high-pressure gradient pump, and a UV detector, that was connected to an Agilent MSD 6130 system (Agilent Technologies, Palo Alto, CA, USA). The Agilent 1260 series mass spectra detection (MSD) single-quadrupole instrument was equipped with the orthogonal spray API-ES (Agilent Technologies, Palo Alto, CA, USA). Nitrogen was used as a nebulizing and drying gas. Chromatographic separation was performed using a Phenomenex Kinetex EVO C18-100 Å (150 × 4.6 mm, 5 μm particle size) at 25 °C and a gradient elution with a binary solution; eluent A was H2O, while eluent B consisted of ACN (both eluents were acidified with FA 0.1% v/v). […] UV detection was monitored at 254 nm. Spectra were acquired over the scan range m/z 100–1500 in positive mode.
# DMSO-stock compounds’ solutions were diluted with Mill-Q H2O to a final concentration of 200 μM. The percentage of DMSO never exceeded 2% v/v. Samples were incubated under gentle shaking at 25 °C (RT) conditions for 3 h. The suspensions were filtered using a 0.45 µm nylon filter (Acrodisc, VWR, Radnor, PE, USA), and the amount of solubilized compound was determined with the HPLC-UV-MS method reported above. The quantification of the solubilized compound was made with the appropriate calibration curve realized with stock solutions in DMSO (0.1–100 µg/mL). The limit of detection (LOD) was quantified at 0.1 µg/mL.
# [7] = Parallel artificial membrane permeability assay (PAMPA); assay type: in vitro ADME; conditions: GI, pH 7.4, 5 h, RT
# Description: To evaluate the apparent permeability of tested compounds, a DMSO stock solution [1 mM] of each derivative was prepared and then diluted 1:1 v/v with phosphate buffer (PBS 25 mM, pH 7.4) in order to make the donor solutions. According to the protocol already published, the gastrointestinal (GI) phospholipidic bilayer was mimed through adding a 1% w/v dodecane solution of phosphatidylcholine (PC). The sandwich plates were assembled and incubated for 5 h at RT. At the end time point, the amount of compound passed through the phospholipid bilayer was measured using HPLC-UV/MS. Finally, apparent permeability (Papp) and membrane retention (MR%) were calculated as previously described.
# [8] = triazines 1-9, read-out 48 h, Cell-Titer Glo
# [9] = pyrimidines and pyridines, read out at 48 h, mean ± SD
Compound,CC50 at 48 h [1] [µM],TSI H9 (H9 cells; triazines 1-9),CC50 at 48 h [2] [µM],TSI Caco-2 (Caco-2 cells; triazines 1-9),"CC50 at 48 h [3, 8] [µM]",TSI Huh7 (Huh7 cells; triazines 1-9),"CC50 at 48 h ([4]; triazines 1-9, read-out 48 h) [µM]",Metabolic Stability [5] [%],TSI H9 (H9 cells; pyrimidines and pyridines),TSI Caco-2 (Caco-2 cells; pyrimidines and pyridines),Plasmatic Stability (Plasma stability assay) [%],"CC50 at 48 h [3, 9] [µM]",CC50 FB789 (FB789 cells),TSI Huh7 (Huh7 cells; pyrimidines and pyridines),"CC50 at 48 h [4, 9] [µM]",solubility kinetic at 3 h [6] [µg/mL],"Papp at 5 h, 0.5 mM [7] [×10⁻⁶ cm/s]",further results
Oc1ccccc1/C=N/Nc1nc(N2CCOCC2)nc(N2CCOCC2)n1 [Compound 1],> 100,<0.3,> 400,<0.1,30 ± 6,<0.3,> 100,–,–,–,–,–,–,–,–,–,–,IC50 (SARS-CoV-2): 12.1 µM
Oc1ccccc1/C=N/Nc1nc(Nc2ccc(F)cc2)nc(N2CCOCC2)n1 [Compound 4],2 ± 1,5.5,3 ± 1,3.7,11 ± 3,1.2,9 ± 1,–,–,–,–,–,–,–,–,–,–,IC50 (DENV): 2 µM; IC50 (WNV): 1.1 µM
Cc1cccc(/C=N/Nc2cc(Nc3ccc(F)cc3)nc(Nc3ccc(F)cc3)c2)c1 [Compound 33b],23 ± 7,–,11 ± 9,–,–,–,–,>99.9,17.0,35.5,81.01 ± 3.28,390 ± 30,very low cytotoxic effect,18.6,21 ± 12,< 0.1,1.38 ± 0.6,MR (membrane retention) [7]: 46.84% and 46.84 ± 4.99%
Cc1cccc(/C=N/Nc2cc(Nc3ccc(F)cc3)nc(N3CCOCC3)c2)c1 [Compound 38b],18 ± 4,–,8 ± 3,–,–,–,–,97.93 ± 0.46,5.0,11.3,87.13 ± 0.48,90 ± 9,very low cytotoxic effect,10.0,9 ± 6,0.54,6.35 ± 0.67,"solubility at 3 h ([6]; log of kinetic water solubility, read-out: LogS (converted)): 1.35 µM"

# Source: PMC11013010, “Serendipitous Identification of Azine Anticancer Agents Using a Privileged Scaffold Morphing Strategy” (Molecules, 2024)
